How the values were obtained:
Type in all cases: cell-based, Pseudomonas aeruginosa
bioluminescent PA Xen41 = assay: Broth based killing assay; details: for killing of PA Xen41: 2 mM Na2-EDTA and/or 30 mM NaNO2 with gel (Solosite) 1:100, LB pH 6.5, 48 hours
Procedure: The efficacy of a formulation according to the present disclosure was tested in vitro using an overnight culture of bioluminescent PA Xen41, diluted in LB media (pH 6.5) along with a gel (Solosite®, herein SS) at a 1:100 dilution. Bioluminescent PA was used for both in vitro and in vivo experiments.
(§1) Bioluminescent PA-Xen41 was grown overnight in LB media at 37° C. with shaking. Overnight cultures were diluted 100-fold into fresh LBN (LB-1% KNO3) 6.5 media and 5 ml aliquots were transferred to culture tubes. Final concentrations of 30 mM NaNO2 and/or 2 mM Na2-EDTA were added to each tube. Cells were grown anaerobically at 37° C. mimicking a mature biofilm. Samples were taken daily for 48 hours while the cells were still in the anaerobic chamber. Samples were serially diluted in PBS, pH 7.4, and 10 μl aliquot from each dilution placed on LB agar plates and grown aerobically overnight at 37° C. CFU were enumerated the next morning and converted to CFU/ml after multiplying by the dilution factor.

[1] = system: clinical strains of PA isolated from burn wounds; assay: Checkerboard assay for MIC and FIC determination; details: for MIC EDTA / MIC NaNO2: LB pH 6.5, 10% SS hydrogel, 24 hours; for FIC NaNO2: NaNO2 in combination with EDTA
Procedure: (§2) The inventors further confirmed the bactericidal activity of AB569 gel against various clinical strains of PA isolated from burn wound patients by synergy measurements using the checkerboard analysis. […] FICI=Fractional inhibitory concentration index. […] is synergistic; 0.5<FICI<1 is weak synergistic.
(§3) 96-well polystyrene plates were filled with 100 μl of LB, pH 6.5 and 10% SS hydrogel (Smith and Nephew, London, UK). Row A was filled with 100 μl of a 4× stock of Na2-EDTA (16 mM) and […] was filled with 4× NaNO2 stock (256 mM), bringing both to a 2× concentration. Two-fold serial dilutions were performed such that a concentration gradient of each was created. Column 12 was filled with media to represent a negative control. An overnight culture of bacteria was adjusted to an OD600 of 0.5 in LB media. This was then diluted 1:1000 into fresh media, which was then added to the checkerboard plate (columns 1-11). This dilution was selected as it harbored ˜5×10^5 CFU/ml. Column 11 was the positive control. Plates were incubated at 37° C. The cell turbidity was determined using a 96 well plate reader after 24 hours inoculation. The threshold used for a positive cutoff to calculate MICs and FICs was 0.001 after blank (media) subtraction.

PAO1 = assay: Checkerboard assay for MIC and FIC determination; details: strain PAO1
Procedure: as §2, §3

[2] = system: clinical strains of PA isolated from human burn patients; assay: Broth based killing assay on clinical strains; details: gel formulation; 2 mM Na2-EDTA and/or 30 mM NaNO2; strains with varying antibiotic sensitivity and resistance
Procedure: The efficacy of the AB569 gel formulation was tested on different clinical strains of PA isolated from human burn patients with varying sensitivity and resistance to antibiotics using a broth based killing assay.
as §1

[3] = LB pH 6.5, 10% SS hydrogel, 24 hours

With `O=C([O-])CN(CCN(CC(=O)[O-])CC(=O)O)CC(=O)O.[Na+].[Na+]` [Na2-EDTA, di-sodium EDTA] the “killing of PA Xen41” value (bioluminescent PA Xen41) was “significant killing”, the “MIC EDTA” value ([1]; strain Burn #1-1) was 0.5 ± 0^ mM and the “MIC EDTA” value ([1]; strain Burn #1) was 0.833 ± 0.289 mM. For the same molecule, the “MIC EDTA” value ([1]; strain Burn #2-1) was 0.833 ± 0.289 mM, the “MIC EDTA” value ([1]; strain Burn #2) was 0.5 ± 0^ mM and the “MIC EDTA” value ([1]; strain Burn #3-1) was 0.667 ± 0.289 mM. For the same molecule, the “MIC EDTA” value ([1]; strain Burn #3) was 0.833 ± 0.289 mM, the “MIC EDTA” value ([1]; strain Burn #4-1) was 0.5 ± 0^ mM and the “MIC EDTA” value ([1]; strain Burn #4) was 0.667 ± 0.289 mM. For the same molecule, the “MIC EDTA” value ([1]; strain Burn #5-1) was 0.5 ± 0^ mM, the “MIC EDTA” value ([1]; strain Burn #5) was 0.5 ± 0^ mM and the “MIC EDTA” value ([1]; strain Burn #6-1) was 0.5 ± 0^ mM. The “MIC EDTA” value ([1]; strain Burn #6) was 0.667 ± 0.289 mM, the “MIC EDTA” value ([1]; strain Burn #7-1) was 0.5 ± 0^ mM and the “MIC EDTA” value ([1]; strain Burn #7) was 0.833 ± 0.289 mM. The “MIC EDTA” value ([1]; strain Burn #8-1) was 0.5 ± 0^ mM, the “MIC EDTA” value ([1]; strain Burn #8) was 0.667 ± 0.289 mM and the “MIC EDTA” value ([1]; strain Burn #9-1) was 0.5 ± 0^ mM. The “MIC EDTA” value ([1]; strain Burn #9) was 0.5 ± 0^ mM, the “MIC EDTA” value ([1]; strain Burn #10-1) was 0.416 ± 0.144 mM and the “MIC EDTA” value ([1]; strain Burn #11-1) was 0.667 ± 0.289 mM. The “MIC EDTA” value ([1]; strain Burn #12-1) was 0.5 ± 0^ mM, the “FIC EDTA” value (PAO1; EDTA in combination with NaNO2) was 0.333 ± 0.144 mM and the “MIC EDTA” value (PAO1; [3]) was 0.833 ± 0.289 mM. The “killing of clinical strains of PA” value [2] was “efficient killing”.
In the case of `O=N[O-].[Na+]` [NaNO2], the “killing of PA Xen41” value (bioluminescent PA Xen41) is reported as “completely killed”, the “killing of PA Xen41” value (bioluminescent PA Xen41; listed as A-NO2^−) is reported as “complete and maintained 48 hours” and the “bioluminescent signals of XEN41-containing plates (IVIS)” value (bioluminescent PA Xen41; 48 hours after treatment) is reported as “elimination of bioluminescent signals”. For the same molecule, the “MIC NaNO2” value ([1]; strain Burn #1-1) was 26.667 ± 9.238 mM, the “FIC NaNO2” value ([1]; strain Burn #1-1) was 5.333 ± 2.309 mM and the “MIC NaNO2” value ([1]; strain Burn #1) was 18.667 ± 12.220 mM. For the same molecule, the “FIC NaNO2” value ([1]; strain Burn #1) was 4.167 ± 3.752 mM, the “MIC NaNO2” value ([1]; strain Burn #2-1) was 26.667 ± 9.238 mM and the “FIC NaNO2” value ([1]; strain Burn #2-1) was 6.667 ± 2.309 mM. For the same molecule, the “MIC NaNO2” value ([1]; strain Burn #2) was 14.667 ± 15.144 mM, the “FIC NaNO2” value ([1]; strain Burn #2) was 7.333 ± 7.572 mM and the “MIC NaNO2” value ([1]; strain Burn #3-1) was 21.333 ± 9.238 mM. The “FIC NaNO2” value ([1]; strain Burn #3-1) was 5.333 ± 2.309 mM, the “MIC NaNO2” value ([1]; strain Burn #3) was 24 ± 13.856 mM and the “FIC NaNO2” value ([1]; strain Burn #3) was 6.667 ± 2.309 mM. The “MIC NaNO2” value ([1]; strain Burn #4-1) was 21.333 ± 9.238 mM, the “FIC NaNO2” value ([1]; strain Burn #4-1) was 9.333 ± 6.110 mM and the “MIC NaNO2” value ([1]; strain Burn #4) was 13.333 ± 4.618 mM. For the same molecule, the “FIC NaNO2” value ([1]; strain Burn #4) was 2.75 ± 2.165 mM, the “MIC NaNO2” value ([1]; strain Burn #5-1) was 21.333 ± 9.238 mM and the “FIC NaNO2” value ([1]; strain Burn #5-1) was 2.667 ± 1.155 mM. For the same molecule, the “MIC NaNO2” value ([1]; strain Burn #5) was 13.333 ± 4.618 mM, the “FIC NaNO2” value ([1]; strain Burn #5) was 4.667 ± 3.055 mM and the “MIC NaNO2” value ([1]; strain Burn #6-1) was 13.333 ± 4.618 mM. The “FIC NaNO2” value ([1]; strain Burn #6-1) was 2.333 ± 1.523 mM, the “MIC NaNO2” value ([1]; strain Burn #6) was 18.667 ± 12.220 mM and the “FIC NaNO2” value ([1]; strain Burn #6) was 5.333 ± 2.309 mM. For the same molecule, the “MIC NaNO2” value ([1]; strain Burn #7-1) was 21.333 ± 9.238 mM, the “FIC NaNO2” value ([1]; strain Burn #7-1) was 6 ± 3.464 mM and the “MIC NaNO2” value ([1]; strain Burn #7) was 24 ± 13.856 mM. For the same molecule, the “FIC NaNO2” value ([1]; strain Burn #7) was 6.667 ± 2.309 mM, the “MIC NaNO2” value ([1]; strain Burn #8-1) was 21.333 ± 9.238 mM and the “FIC NaNO2” value ([1]; strain Burn #8-1) was 0.75 ± 0.433 mM. For the same molecule, the “MIC NaNO2” value ([1]; strain Burn #8) was 16 ± 0 mM, the “FIC NaNO2” value ([1]; strain Burn #8) was 2.167 ± 1.756 mM and the “MIC NaNO2” value ([1]; strain Burn #9-1) was 21.333 ± 9.238 mM. The “FIC NaNO2” value ([1]; strain Burn #9-1) was 4.666 ± 3.055 mM, the “MIC NaNO2” value ([1]; strain Burn #9) was 13.333 ± 4.618 mM and the “FIC NaNO2” value ([1]; strain Burn #9) was 5.333 ± 2.309 mM. The “MIC NaNO2” value ([1]; strain Burn #10-1) was 16 ± 0 mM, the “FIC NaNO2” value ([1]; strain Burn #10-1) was 4 ± 0 mM and the “MIC NaNO2” value ([1]; strain Burn #11-1) was 32 ± 27.713 mM. For the same molecule, the “FIC NaNO2” value ([1]; strain Burn #11-1) was 8 ± 0 mM, the “MIC NaNO2” value ([1]; strain Burn #12-1) was 26.667 ± 9.238 mM and the “FIC NaNO2” value ([1]; strain Burn #12-1) was 6 ± 3.464 mM. The “MIC NaNO2” value (PAO1; [3]) was 18.667 ± 12.220 mM and the “FIC NaNO2” value (PAO1; NaNO2 in combination with EDTA) was 4.083 ± 3.876 mM.
